One compound from patent US20110072525A1, “COMPOSITIONS AND METHODS FOR THE TREATMENT OF PSYCHIATRIC AND NEUROLOGICAL DISORDERS” (priority 2009, published 2011) can be followed below.

This assay relates to wild type C57BL6 mice. Briefly: Prepulse inhibition (PPI) of the acoustic startle response, control experiment. The assay is classed as in vivo. As to conditions: wild type C57BL6 mice injected with MK-801 1 mg/kg; same PPI protocol; data not shown. As for the experimental part:
Prepulse inhibition (PPI) of the acoustic startle response. Prepulse inhibition (PPI) of the acoustic startle response was measured as described previously with some minor modifications (E. S. Emamian et al., 2004b). Adult homozygous mutant mice and their wild-type littermates were housed individually for 2 weeks prior to testing. Testing was conducted in a SR-Lab system (San Diego Instruments). Response amplitude was calculated as the maximum response level occurred during the 100 ms recording. Because animals can habituate to the prepulse, and to the startle stimulus, the number of trials was kept to minimum. Immediately after being placed in the chamber, the animal was allowed to acclimate for 5 min which background noise (86 dB) continually present. The animal then received 10 sets of the following 5 types of trials, distributed pseudo-randomly, and separated by 15 sec inter-trial intervals: Trial 1: 40 ms, 120 dB noise burst alone; Trial 2-4: 120 dB startle stimuli preceded 100 ms by one of the three 20 ms prepulses: 90 dB, 94 dB or 98 dB; Trial 5: no-stimulus/background noise alone (86 dB). […] Data was analyzed using ANOVA with repeated measures.

Consider `C[C@]12N[C@H](Cc3ccccc31)c1ccccc12` [MK-801], for which the “Prepulse inhibition (PPI) of the acoustic startle response” value is on record as “significant decrease in PPI”.
